# Key:
# [1] = molecular target: T1, Human Indoleamine 2,3-dioxygenase (IDO) (Homo sapiens, UniProt P14902); assay: Human IDO enzymatic assay (kynurenine level); format: biochemical; conditions: 6 nM IDO, 10 μM L-Trp; geometric mean; read-out: IDO1 GMean: IC50 (μM) (Biochemical Assay)
# T1 construct: His tag (N); made in house; host or cells: E. coli
# Method: (§1) Human Indoleamine 2,3-dioxygenase (IDO) and Tryptophan 2,3-dioxygenase (TDO) enzymatic assay
# (§2) Human IDO or TDO with N-terminal His tag is purified in E. coli. The IDO enzymatic assay is performed using 6 nM IDO and 10 μM L-Trp in the presence of 10 mM ascorbic acid, 5 μM methylene blue, 100 nM catalase and 0.01% Tween 20 in 50 mM sodium phosphate buffer (pH 6.5). 19 μL of above reaction mixture is added to wells of 384 well reaction plate containing […] of various concentrations of test compound or DMSO vehicle and incubated for 20 minutes at room temperature. The TDO enzymatic reaction assay is performed using 1 nM TDO and 350 μM L-Trp in the presence of 10 mM ascorbic acid, 0.4 μM methylene blue, 100 nM catalase and 0.01% Tween 20 in 50 mM sodium phosphate buffer (pH 6.5). 19 μL of above reaction mixture is added to wells of 384 well reaction plate containing 1 μL of various concentrations of test compound or DMSO vehicle and incubated for 70 minutes at room temperature. 16 wells containing all the components of reaction mixture and 5% DMSO serve as high control. 16 well containing all the components except enzyme of reaction mixture and 5% DMSO serves as low control. Both IDO and TDO enzymatic reactions are stopped by addition of […] of 30% TCA and incubated 30 minutes at 50° C. to hydrolyze N-formylkynurenine produced by IDO or TDO to kynurenine. Upon measuring the kynurenine level, the percentage inhibition is calculated at individual concentrations relative to high and low controls. The data is analyzed by using nonlinear regression to generate IC50 values.
# [2] = molecular target: T2, Human Tryptophan 2,3-dioxygenase (TDO) (Homo sapiens, UniProt P48775); assay: Human TDO enzymatic assay (kynurenine level); format: biochemical; conditions: 1 nM TDO, 350 μM L-Trp; geometric mean; read-out: TDO GMean: IC50 (μM) (Biochemical Assay)
# T2 construct: His tag (N); made in house; host or cells: E. coli
# Method: as §1, §2
# T1 sequence (P14902 whole entry): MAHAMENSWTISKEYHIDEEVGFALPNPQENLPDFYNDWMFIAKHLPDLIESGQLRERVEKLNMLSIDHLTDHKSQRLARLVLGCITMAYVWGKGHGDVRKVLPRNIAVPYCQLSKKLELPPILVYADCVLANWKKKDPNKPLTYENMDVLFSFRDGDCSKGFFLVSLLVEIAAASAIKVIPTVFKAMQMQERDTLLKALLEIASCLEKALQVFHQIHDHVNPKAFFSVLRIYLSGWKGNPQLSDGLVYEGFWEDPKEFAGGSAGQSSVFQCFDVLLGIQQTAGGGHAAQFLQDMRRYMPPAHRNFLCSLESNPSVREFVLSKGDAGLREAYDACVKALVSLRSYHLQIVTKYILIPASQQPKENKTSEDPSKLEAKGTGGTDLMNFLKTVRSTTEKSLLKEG
# T2 sequence (P48775 whole entry): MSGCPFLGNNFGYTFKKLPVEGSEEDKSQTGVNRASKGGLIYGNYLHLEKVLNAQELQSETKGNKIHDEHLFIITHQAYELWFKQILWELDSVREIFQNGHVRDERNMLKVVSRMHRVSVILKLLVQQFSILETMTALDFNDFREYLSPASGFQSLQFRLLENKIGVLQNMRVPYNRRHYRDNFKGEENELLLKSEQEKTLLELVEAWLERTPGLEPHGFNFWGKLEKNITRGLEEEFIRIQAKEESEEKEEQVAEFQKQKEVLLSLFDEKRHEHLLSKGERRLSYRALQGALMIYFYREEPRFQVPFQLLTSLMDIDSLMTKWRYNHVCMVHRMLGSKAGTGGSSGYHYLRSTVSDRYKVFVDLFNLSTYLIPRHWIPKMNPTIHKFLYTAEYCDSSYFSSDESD
IC50 [1] [µM],IC50 [2] [µM],Structure (SMILES)
0.0001 to 10,0.0001 to 10,"CNC(=O)CNC(=O)N1CCC(C(C)(C)[C@H](O)c2cc(Cl)cc3cn[nH]c23)CC1 [Compound P-0583, (S)-4-(1-(5-chloro-1H-indazol-7-yl)-1-hydroxy-2-methylpropan-2-yl)-N-(2-(methylamino)-2-oxoethyl)piperidine-1-carboxamide]"
0.0001 to 10,0.0001 to 10,"CC(C)(C1CCN(C(=O)NCc2ccc(C#N)cc2)CC1)[C@H](O)c1cc(Cl)cc2cn[nH]c12 [Compound P-0584, (S)-4-(1-(5-chloro-1H-indazol-7-yl)-1-hydroxy-2-methylpropan-2-yl)-N-(4-cyanobenzyl) piperidine-1-carboxamide]"
0.0001 to 10,0.0001 to 10,"COc1ccc(CNC(=O)N2CCC(C(C)(C)[C@H](O)c3cc(Cl)cc4cn[nH]c34)CC2)cn1 [Compound P-0585, (S)-4-(1-(5-chloro-1H-indazol-7-yl)-1-hydroxy-2-methylpropan-2-yl)-N-((6-methoxypyridin-3-yl)methyl)piperidine-1-carboxamide]"
0.0001 to 10,0.0001 to 10,"CN(C)c1ccc(CNC(=O)N2CCC(C(C)(C)[C@H](O)c3cc(Cl)cc4cn[nH]c34)CC2)cn1 [Compound P-0586, (S)-4-(1-(5-chloro-1H-indazol-7-yl)-1-hydroxy-2-methylpropan-2-yl)-N-((6-(dimethylamino)pyridin-3-yl)methyl)piperidine-1-carboxamide]"
0.0001 to 10,0.0001 to 10,"CC(C)(C1CCN(C(=O)NCC#N)CC1)[C@H](O)c1cc(Cl)cc2cn[nH]c12 [Compound P-0587, (S)-4-(1-(5-chloro-1H-indazol-7-yl)-1-hydroxy-2-methylpropan-2-yl)-N-(cyanomethyl) piperidine-1-carboxamide]"
0.0001 to 10,0.0001 to 10,"CC(C)(C1CCN(C(=O)NC2CCC(F)(F)CC2)CC1)[C@H](O)c1cc(Cl)cc2cn[nH]c12 [Compound P-0588, (S)-4-(1-(5-chloro-1H-indazol-7-yl)-1-hydroxy-2-methylpropan-2-yl)-N-(4,4-difluorocyclohexyl) piperidine-1-carboxamide]"
0.0001 to 10,0.0001 to 10,"CC(C)(C1CCN(C(=O)N[C@H]2CCOC2)CC1)[C@H](O)c1cc(Cl)cc2cn[nH]c12 [Compound P-0589, 4-((S)-1-(5-chloro-1H-indazol-7-yl)-1-hydroxy-2-methylpropan-2-yl)-N-((S)-tetrahydrofuran-3-yl)piperidine-1-carboxamide]"
0.0001 to 10,0.0001 to 10,"CC(C)(C1CCN(C(=O)NCc2ccc(C#N)nc2)CC1)[C@H](O)c1cc(Cl)cc2cn[nH]c12 [Compound P-0590, (S)-4-(1-(5-chloro-1H-indazol-7-yl)-1-hydroxy-2-methylpropan-2-yl)-N-((6-cyanopyridin-3-yl)methyl)piperidine-1-carboxamide]"
0.0001 to 10,0.0001 to 10,"CC(C)(C1CCN(C(=O)N[C@@H]2CC[C@@H](O)C2)CC1)[C@H](O)c1cc(Cl)cc2cn[nH]c12 [Compound P-0591, 4-((S)-1-(5-chloro-1H-indazol-7-yl)-1-hydroxy-2-methylpropan-2-yl)-N-((1R,3R)-3-hydroxycyclopentyl) piperidine-1-carboxamide]"
0.0001 to 10,0.0001 to 10,"CC(C)(C1CCN(C(=O)NC2CC(F)(F)C2)CC1)[C@H](O)c1cc(Cl)cc2cn[nH]c12 [Compound P-0592, (S)-4-(1-(5-chloro-1H-indazol-7-yl)-1-hydroxy-2-methylpropan-2-yl)-N-(3,3-difluorocyclobutyl) piperidine-1-carboxamide]"
0.0001 to 10,0.0001 to 10,"CC(C)(C1CCN(C(=O)N[C@@H]2CCOC2)CC1)[C@H](O)c1cc(Cl)cc2cn[nH]c12 [Compound P-0593, 4-((S)-1-(5-chloro-1H-indazol-7-yl)-1-hydroxy-2-methylpropan-2-yl)-N-((R)-tetrahydrofuran-3-yl)piperidine-1-carboxamide]"
0.0001 to 10,0.0001 to 10,"CC(C)NC(=O)N1CCC(C(C)(C)[C@H](O)c2cc(Cl)cc3cn[nH]c23)CC1 [Compound P-0594, (S)-4-(1-(5-chloro-1H-indazol-7-yl)-1-hydroxy-2-methylpropan-2-yl)-N-isopropylpiperidine-1-carboxamide]"
0.0001 to 10,0.0001 to 10,"CC(C)(C1CCN(C(=O)NC2COC2)CC1)[C@H](O)c1cc(Cl)cc2cn[nH]c12 [Compound P-0595, (S)-4-(1-(5-chloro-1H-indazol-7-yl)-1-hydroxy-2-methylpropan-2-yl)-N-(oxetan-3-yl)piperidine-1-carboxamide]"
0.0001 to 10,0.0001 to 10,"CC(C)(C1CCN(C(=O)NCCCF)CC1)[C@H](O)c1cc(Cl)cc2cn[nH]c12 [Compound P-0596, (S)-4-(1-(5-chloro-1H-indazol-7-yl)-1-hydroxy-2-methylpropan-2-yl)-N-(3-fluoropropyl) piperidine-1-carboxamide]"
0.0001 to 10,0.0001 to 10,"CC(C)(C1CCN(C(=O)NCCCC#N)CC1)[C@H](O)c1cc(Cl)cc2cn[nH]c12 [Compound P-0597, (S)-4-(1-(5-chloro-1H-indazol-7-yl)-1-hydroxy-2-methylpropan-2-yl)-N-(3-cyanopropyl) piperidine-1-carboxamide]"
0.0001 to 10,0.0001 to 10,"CONC(=O)N1CCC(C(C)(C)[C@H](O)c2cc(Cl)cc3cn[nH]c23)CC1 [Compound P-0598, (S)-4-(1-(5-chloro-1H-indazol-7-yl)-1-hydroxy-2-methylpropan-2-yl)-N-methoxypiperidine-1-carboxamide]"
0.0001 to 10,0.0001 to 10,"CC1(CNC(=O)N2CCC(C(C)(C)[C@H](O)c3cc(Cl)cc4cn[nH]c34)CC2)CC1 [Compound P-0599, (S)-4-(1-(5-chloro-1H-indazol-7-yl)-1-hydroxy-2-methylpropan-2-yl)-N-((1-methylcyclopropyl)methyl)piperidine-1-carboxamide]"
0.0001 to 10,0.0001 to 10,"CC(C)(C1CCN(C(=O)N[C@H]2C[C@H](O)C2)CC1)[C@H](O)c1cc(Cl)cc2cn[nH]c12 [Compound P-0600, 4-((S)-1-(5-chloro-1H-indazol-7-yl)-1-hydroxy-2-methylpropan-2-yl)-N-((1r,3S)-3-hydroxycyclobutyl) piperidine-1-carboxamide]"
0.0001 to 10,0.0001 to 10,"CC(C)(C1CCN(C(=O)NCc2ccc(F)cn2)CC1)[C@H](O)c1cc(Cl)cc2cn[nH]c12 [Compound P-0601, (S)-4-(1-(5-chloro-1H-indazol-7-yl)-1-hydroxy-2-methylpropan-2-yl)-N-((5-fluoropyridin-2-yl)methyl) piperidine 1-carboxamide]"
0.0001 to 10,0.0001 to 10,"CC(C)(C1CCN(C(=O)NCc2ccc(F)cc2)CC1)[C@H](O)c1cc(Cl)cc2cn[nH]c12 [Compound P-0602, (S)-4-(1-(5-chloro-1H-indazol-7-yl)-1-hydroxy-2-methylpropan-2-yl)-N-(4-fluorobenzyl) piperidine-1-carboxamide]"
0.0001 to 10,0.0001 to 10,"CC(C)(C1CCN(C(=O)Nc2ccccc2)CC1)C(O)c1cc(Cl)cc2[nH]ncc12 (stereo not shown) [Compound P-0603, 4-(1-(6-chloro-1H-indazol-4-yl)-1-hydroxy-2-methylpropan-2-yl)-N-phenylpiperidine-1-carboxamide]"
0.0001 to 10,0.0001 to 10,"CC(C)(C1CCN(C(=O)Nc2ccc(Cl)nc2)CC1)C(O)c1cc(Cl)cc2cn[nH]c12 (stereo not shown) [Compound P-0604, 4-(1-(5-chloro-1H-indazol-7-yl)-1-hydroxy-2-methylpropan-2-yl)-N-(6-chloropyridin-3-yl)piperidine-1-carboxamide]"
0.0001 to 10,0.0001 to 10,"COc1ccc(NC(=O)N2CCC(C(C)(C)C(O)c3cc(Cl)cc4cn[nH]c34)CC2)cn1 (stereo not shown) [Compound P-0605, 4-(1-(5-chloro-1H-indazol-7-yl)-1-hydroxy-2-methylpropan-2-yl)-N-(6-methoxypyridin-3-yl)piperidine-1-carboxamide]"
0.0001 to 10,0.0001 to 10,"CC(C)(C1CCN(C(N)=O)CC1)C(O)c1cc(Cl)cc2[nH]ncc12 (stereo not shown) [Compound P-0606, 4-(1-(6-chloro-1H-indazol-4-yl)-1-hydroxy-2-methylpropan-2-yl)piperidine-1-carboxamide]"
0.0001 to 10,0.0001 to 10,"CC(C)(C)OC(=O)N1CCC(C(C)(C)C(O)c2cc(Cl)cc3[nH]ncc23)CC1 (stereo not shown) [Compound P-0607, tert-butyl 4-(1-(6-chloro-1H-indazol-4-yl)-1-hydroxy-2-methylpropan-2-yl)piperidine-1-carboxylate]"
0.0001 to 10,0.0001 to 10,"CC(C)(C1CCN(C(=O)CC2CC2)CC1)C(O)c1cc(Cl)cc2[nH]ncc12 (stereo not shown) [Compound P-0608, 1-(4-(1-(6-chloro-1H-indazol-4-yl)-1-hydroxy-2-methylpropan-2-yl)piperidin-1-yl)-2-cyclopropylethan-1-one]"

# — patent US10508085B2, “Compounds and methods for IDO and TDO modulation, and indications therefor” (Plexxikon Inc., priority 2016, dated 2019)
